For orientation: half-life means how long it takes for the measured level to halve. A word on the Tmax: it is the time at which the peak concentration occurs.

Here are results for 14 compounds from ChEMBL document CHEMBL4138141, “Rapid generation of a novel DPP-4 inhibitor with long-acting properties: SAR study and PK/PD evaluation” (Eur J Med Chem, 2017).

The nature of series [1]: Half life in human liver microsomes at […] by LC-MS/MS analysis. Format: ADME, microsome. For orientation: Liver microsomes are vesicles of endoplasmic reticulum, rich in cytochrome P450 enzymes.
A short description of series [2]: Metabolic stability in mouse liver microsomes assessed as parent compound remaining at […] incubated for 5 mins measured up to 60 mins by LC-MS/MS analysis. Conditions: read-out: Stability. Format: ADME, microsome.
Series [3] in a line: Half life in rat liver microsomes at […] by LC-MS/MS analysis. Format: ADME, microsome.
The subject of series [4] is Rattus norvegicus. Nature of the series: Clearance in Sprague-Dawley rat at 25 mg/kg, po or 5 mg/kg, iv administered as single dose by LC-MS/MS analysis. The series is classed as ADME, organism-based. Conditions: in vivo.
Series [5] can be described thus: Apparent volume of distribution during terminal phase in Sprague-Dawley rat at 25 mg/kg, po or 5 mg/kg, iv administered as single dose by LC-MS/MS analysis. The note with it: in vivo, read-out: Vz/F. The series is classed as ADME, organism-based.
Series [6] in a line: Half life in Sprague-Dawley rat at 25 mg/kg, po administered as single dose by LC-MS/MS analysis. The series is classed as ADME, organism-based. Conditions: in vivo.
A short description of series [7]: Tmax in Sprague-Dawley rat at 25 mg/kg, po or 5 mg/kg, iv administered as single dose by LC-MS/MS analysis. The series is classed as ADME, organism-based. The note with it: in vivo.
A short description of series [8]: Metabolic stability in human liver microsomes assessed as parent compound remaining at […] incubated for 5 mins measured up to 60 mins by LC-MS/MS analysis. Conditions: read-out: Stability. The series is classed as ADME, microsome.
Series [9] deals with Rattus norvegicus. Nature of the series: AUC (0 to t) in Sprague-Dawley rat at 25 mg/kg, po administered as single dose by LC-MS/MS analysis. The series is classed as ADME, organism-based. The note with it: in vivo.
Series [10] in a line: Metabolic stability in monkey liver microsomes assessed as parent compound remaining at […] incubated for 5 mins measured up to 60 mins by LC-MS/MS analysis. The series is classed as ADME, Macaca mulatta, microsome. The note with it: rhesus monkey, read-out: Stability.
Series [11] has as its system Rattus norvegicus. As to the kind of experiment: Oral bioavailability in Sprague-Dawley rat at 25 mg/kg administered as single dose by LC-MS/MS analysis. The series is classed as ADME, organism-based. The note with it: in vivo.
Series [12] is described as follows: Metabolic stability in dog liver microsomes assessed as parent compound remaining at […] incubated for 5 mins measured up to 60 mins by LC-MS/MS analysis. The series is classed as ADME, Canis lupus familiaris, microsome. The note with it: read-out: Stability.
Series [13] can be described thus: Metabolic stability in rat liver microsomes assessed as parent compound remaining at […] incubated for 5 mins measured up to 60 mins by LC-MS/MS analysis. The series is classed as ADME, microsome. Conditions: read-out: Stability.

Each structure is given as a SMILES string.

As to `Cn1c(=O)cc(N2CCC[C@@H](N)C2)n(Cc2cc(F)ccc2C#N)c1=O` [TRELAGLIPTIN], the half-life was over 3.33 h in [1], over 3.33 h in series [3] and 5.13 h in [6]. Besides, the remaining at 60 min in series [2], in series [8], in series [10], in [12] and in series [13] was over 80% throughout. For the same compound, the CL in [4] came to 128 mL/min/kg. Further, the Vd/F in series [5] worked out at 48.2 L/kg. Moreover, the Tmax in series [7] is 0.7 h. The compound further had an AUCt in series [9] of 6820 ng·h/mL. Further, in series [11], the F stood at 46.9%.

On to `CS(=O)(=O)c1ccc(-c2c[nH]c3c(=O)n(Cc4cc(F)ccc4C#N)c(N4CCC[C@@H](N)C4)nc23)c(F)c1`, for which the half-life in [1] is over 3.33 h; in series [3], 1.59 h.

As for `N#Cc1ccc(F)cc1Cn1c(N2CCC[C@@H](N)C2)nc2cc[nH]c2c1=O`, the values for the half-life in series [1], in [3] and in series [6] were 3.33 h, over 1 h and 5.46 h, respectively. In addition, in series [4], the CL was 222 mL/min/kg. Moreover, the Vd/F in series [5] is 106 L/kg. In addition, the Tmax in [7] turned out to be 0.14 h. The compound also yielded an AUCt in series [9] of 1880 ng·h/mL. This compound displayed a F in [11] of 10.6%.

With `N#Cc1ccc(F)cc1Cn1c(N2CCC[C@@H](N)C2)nc2c(-c3cccs3)c[nH]c2c1=O`, the values for the half-life in series [1] and in series [3] were 0.585 h and 0.609 h, respectively.

For the compound `CS(=O)(=O)c1ccc(-c2c[nH]c3c(=O)n(Cc4cc(F)ccc4C#N)c(N4CCC[C@@H](N)C4)nc23)cc1F`, the half-life in [1] was over 3.33 h; in [3], 2.78 h.

For `CS(=O)(=O)c1ccccc1-c1c[nH]c2c(=O)n(Cc3cc(F)ccc3C#N)c(N3CCC[C@@H](N)C3)nc12`, the half-life was over 3.33 h in [1] and 3.28 h in series [3].

Turning to `CS(=O)(=O)c1ccc(-c2c[nH]c3c(=O)n(Cc4cc(F)ccc4C#N)c(N4CCC[C@@H](N)C4)nc23)cc1`, the half-life in [1] and in series [3] was over 3.33 h in each case.

As to `N#Cc1ccc(F)cc1Cn1c(N2CCC[C@@H](N)C2)nc2c(-c3ccc(F)cc3)c[nH]c2c1=O`, the results for the half-life in series [1] and in series [3] were 3.01 h and 1.2 h, respectively.

As for `N#Cc1ccc(F)cc1Cn1c(N2CCC[C@@H](N)C2)nc2c(-c3ccc(S(N)(=O)=O)cc3)c[nH]c2c1=O`, the half-life in series [1] and in series [3] was over 3.33 h each time.

With `N#Cc1ccc(F)cc1Cn1c(N2CCC[C@@H](N)C2)nc2c(F)c[nH]c2c1=O`, the half-life in series [1] turned out to be 1.64 h; in [3], 0.838 h.

Consider `CS(=O)(=O)c1cccc(-c2c[nH]c3c(=O)n(Cc4cc(F)ccc4C#N)c(N4CCC[C@@H](N)C4)nc23)c1`, for which the results for the half-life in series [1] and in [3] were over 3.33 h and 1.65 h, respectively.

Turning to `N#Cc1ccc(F)cc1Cn1c(N2CCC[C@@H](N)C2)nc2c(Br)c[nH]c2c1=O`, the results for the half-life in series [1] and in series [3] were 2.21 h and 0.625 h, respectively.

For `CC(C)S(=O)(=O)c1ccc(-c2c[nH]c3c(=O)n(Cc4cc(F)ccc4C#N)c(N4CCC[C@@H](N)C4)nc23)cc1`, the half-life was 0.722 h in series [1] and over 3.33 h in series [3].

As to `N#Cc1ccc(F)cc1Cn1c(N2CCC[C@@H](N)C2)nc2c(-c3ccsc3)c[nH]c2c1=O`, the half-life is 2.67 h in series [1], 0.783 h in [3] and 7.89 h in series [6]. In series [4], this compound returned a CL of 147 mL/min/kg. In addition, the Vd/F in series [5] turned out to be 104 L/kg. Also, the Tmax in [7] amounted to 2.33 h. Further, the AUCt in series [9] turned out to be 2920 ng·h/mL. The same compound showed a F in [11] of 33.4%.
